The test system of one assay is RSV A2. As to the kind of experiment: RSV infection in mice: virus titre in lung (plaque assay). It counts as in vivo, mice (male BALB/C). The settings on record: for Virus titre in lung, Geometric mean / Virus titre in lung, Median: mice, day 4. As for the experimental part:
Non-fasted mice (male BALB/C, 20-30 g) were infected intranasally with RSV A2 or virus diluent (DMEM, 2% FBS, 12.5% sucrose) under isoflurane (5% in O2) anaesthesia. The A2 strain of RSV (50 μL of 1.3×10^6 PFU/mL: final 0.65×10^5 PFU/mouse) was instilled into each nostril in a drop wise fashion alternating between the two until a volume of 50 μL was delivered. Following infection each animal was weighed on a daily basis to monitor changes. Test compounds were dissolved in 100% DMSO (at 20 mg/mL and/or 2 mg/mL), then diluted at 1:10 in isotonic saline to achieve 10% DMSO in all treatments. Formulations were then sonicated to produce a suspension. The suspension was administered intratracheally (20 μL) with a FMJ-250 PennCentury device or intranasally (40 μL) with a pipette on 1 day and 1 hr before infection (day 0), and then on days 1, 2 and 3 post infection. Four days after RSV challenge, the animals were euthanised (by intraperitoneal injection of a pentobarbitone overdose), the trachea cannulated and BALF extracted for total and differential cell counts. Following BALF collection, the right lung was removed from each animal and homogenised in ice-cold Dulbecco's modified Eagles medium (using 10 times the lung weight of DMEM containing 1% BSA and 25% sucrose) for 2×20 second bursts. The homogenate was then transferred into a sterile tube and spun at 4° C. (2000 rpm; for 5 min). The clarified homogenate was transferred to a chilled cryovial, snap frozen and stored at −80° C. The supernatants from lung homogenates were used for Plaque assay.
HEp2 cells were grown in 24-well plates (Corning) for 48 hr prior to infection in DMEM containing 10% FBS until they attained 100% confluency. Lung homogenate was thawed at RT and ten-fold serial dilutions were prepared in serum-free DMEM. The growth medium from HEp2 cells was aspirated and replaced with 300 μL of serially diluted lung homogenate and left to infect (4 hr; 37° C./5% CO2). The infectious media were aspirated and replaced with Plaque Assay Overlay (500 μL; 1% methylcellulose in MEM, 2% FBS, 1% Pen Strep, 0.5 μg/mL amphotericin B), and left for 7 days (37° C./5% CO2). Cells were fixed with ice-cold methanol for 10 min and blocked with 5% powdered milk (Marvel) in 0.05% PBS-tween (blocking buffer) for 1 hr at RT.
Anti-RSV F-protein antibody [2F7] (Abcam: ab43812) was diluted to a 1:100 concentration in blocking buffer and added to cells for 1 hr at RT with shaking. Cells were washed using PBS and then incubated with the secondary antibody (HRP conjugated goat anti-mouse secondary antibody (Dako P044701-2) diluted in 1:400 with blocking buffer) for 1 hr at RT with shaking. The secondary antibody solution was removed and cells were washed with PBS before the metal-enhanced development substrate DAB was prepared in ultra-pure water (according to manufacturer's instructions). Each well received 300 μL of development substrate (sigmaFAST D0426) until plaques were visible. Plaques were counted by eye and confirmed using light microscopy, allowing the calculation of plaque forming units per mL of lung homogenate supernatant.

Assay [1] has as its system RSV NS-1 gene transcripts. As to the kind of experiment: RSV infection in cotton rats: RSV NS-1 gene transcripts in lung (qRT-PCR). In kind it is in vivo, Sigmodon hispidus cotton rats. To be noted: for RSV NS1 gene transcript % inhibition / RSV NS1 gene transcript (/β-actin), Median: intranasal. As for the experimental part:
(§1) RSV Infection in Cotton Rats
(§2) Male Sigmodon hispidus cotton rats between 6 and 8 weeks of age were infected with hRSV/A/Long (ATCC, Manassas, Va.; 10^5 pfu) in a volume of 0.1 mL of sucrose stabilizing media. Test compounds were dissolved in 100% DMSO (at 3.3, 10, 33 and 100 mg/mL), then diluted at 1:10 in isotonic saline to achieve 10% DMSO in all treatments. Formulations were then sonicated to produce suspensions. The resulting suspensions were administered intranasally (50 μL) by pipette 4 hr before infection (on day 0), and then on days 1, 2 and 3 post infection. Four days after RSV challenge, the animals were euthanised and the lungs were removed. The left lobe was used for viral titration via plaque assay and the lingular lobe for RSV/A/Long NS-1 qRT-PCR and cytokine qRT-PCR.
Total RNA was also extracted from homogenized lung tissue (RNeasy purification kit; Qiagen) and a sample (1 μg) was used to prepare cDNA using QuantiTect Reverse Transcription Kit (Qiagen). For real-time PCR reactions (RSV NS-1 and RANTES genes) the QuantiFast SYBR® Green PCR Kit (Qiagen) was used in a final volume of 25 μL, with final primer concentrations of 0.5 μM. Amplifications were performed on a Bio-Rad iCycler for 1 cycle of 95° C. for 3 min, followed by 40 cycles of 95° C. for 10 sec, 60° C. for 10 sec, and 72° C. for 15 sec. Baseline cycles and cycle threshold (Ct) were calculated by the iQ5 software in the PCR Base Line Subtracted Curve Fit mode. The standard curves were developed using serially diluted cDNA sample most enriched in the transcript of interest (e.g., lungs from day 4 post-primary RSV infection). The Ct values were plotted against log10 cDNA dilution factor. These curves were used to convert the Ct values obtained for different samples to relative expression units which were then normalized to the level of β-actin mRNA (“housekeeping gene”) expressed in the corresponding sample. The mRNA levels were expressed as the geometric mean±SEM for all animals in a group.

Another assay deals with hRSV/A/Long. As to the kind of experiment: RSV infection in cotton rats: virus titre in lung (plaque assay). It counts as in vivo, Sigmodon hispidus cotton rats. The settings on record: intranasal. Here is the method:
as §1, §2
The supernatant of lung homogenates were diluted 1:10 and 1:100 in Eagle (E)-MEM. Confluent HEp2 monolayers in 24-well plates were infected in duplicate (50 μL of sample per well) starting with undiluted (neat) samples followed by diluted homogenates. After incubation for 1 hr (37° C./5% CO2) wells were overlaid with 0.75% methylcellulose medium and plates replaced in the 37° C. incubator. After incubation (for 4 days), the overlay was removed, the cells fixed with 0.1% crystal violet stain (for 1 hr) and then rinsed and air-dried. Plaques were counted and viral titers were expressed as plaque forming units per gram (pfu·g^−1) of tissue.

The subject of the next assay is RANTES gene expression. The assay can be described thus: RSV infection in cotton rats: RANTES gene transcripts in lung (qRT-PCR). It counts as in vivo, Sigmodon hispidus cotton rats. As for the experimental part: as §1, §2
Total RNA was also extracted from homogenized lung tissue (RNeasy purification kit; Qiagen) and a sample (1 μg) was used to prepare cDNA using QuantiTect Reverse Transcription Kit (Qiagen). For real-time PCR reactions (RSV NS-1 and RANTES genes) the QuantiFast SYBR® Green PCR Kit (Qiagen) was used in a final volume of 25 μL, with final primer concentrations of 0.5 μM. […] Baseline cycles and cycle threshold (Ct) were calculated by the iQ5 software in the PCR Base Line Subtracted Curve Fit mode. […] The mRNA levels were expressed as the geometric mean±SEM for all animals in a group.

[2] abbreviates: intranasal, Drug Conc 0.2 mg/mL.
Where [3] appears, read: intranasal, Drug Conc 2 mg/mL, LOQ 1.5.
[4] abbreviates: intratracheal, Drug Conc 0.2 mg/mL, LOQ 1.5.
Where [5] appears, read: Drug Conc 10 mg/mL, day 4, LOQ 2.3.

The text below walks through data of patent US10189863B2, “5,6-dihydro-4H-benzo[b]thieno-[2,3-d]azepine derivatives” (PULMOCIDE LIMITED, priority 2014, dated 2019).

Molecules are shown by their SMILES. Where only a bound is given, the exact number is not on record here.

Take `Cc1cnc(N2CC3(CCOCC3)C2)c(C(=O)Nc2ccc(C(=O)N3CCc4cc(C(=O)Nc5c(C)cccc5F)sc4-c4ccccc43)cc2)c1` [Example 5, N-(2-Fluoro-6-methylphenyl)-6-(4-(5-methyl-2-(7-oxa-2-azaspiro[3.5]nonan-2-yl)nicotinamido)benzoyl)-5,6-dihydro-4H-benzo[b]thieno[2,3-d]azepine-2-carboxamide]: the “Effect on virus titre in the lungs (in words)” value in the assay on RSV A2 (RSV A2 infected mice) is “completely inhibited virus titre”. Moreover, the “Virus titre in lung, Geometric mean” value in the assay with RSV A2 (setting [2]) was 2.4 log PFU/lung; with RSV A2 (setting [3]), <1.5^2 log PFU/lung; with RSV A2 (setting [4]), <1.5^2 log PFU/lung; in the assay with hRSV/A/Long (Drug Conc 0.33 mg/mL, day 4), 4.7 log, PFU/lung; with hRSV/A/Long (setting [5]) it was <2.3^2 log, PFU/lung. The “Virus titre in lung, Median” value in the assay on RSV A2 (setting [2]) was 2.5 log PFU/lung; in the assay with RSV A2 (setting [3]) it was <1.5^2 log PFU/lung; in the assay on RSV A2 (setting [4]), <1.5^2 log PFU/lung; in the assay with hRSV/A/Long (Drug Conc 0.33 mg/mL, day 4) it was 4.7 log, PFU/lung; with hRSV/A/Long (Drug Conc 1.0 mg/mL, day 4), 4.5 log, PFU/lung; in the assay with hRSV/A/Long (Drug Conc 3.3 mg/mL, day 4, LOQ 2.3) it was <2.3^2 log, PFU/lung. The “Virus titre in lung, Median” value with hRSV/A/Long (setting [5]) is <2.3^2 log, PFU/lung. For the same molecule, the “Effect on RSV NS-1 gene transcripts (in words)” value in assay [1] is “dose-dependent inhibition”. Moreover, the “RSV NS1 gene transcript % inhibition” value in assay [1] (Drug Conc 0.33 mg/mL) is recorded as 55%; in assay [1] (Drug Conc 1.0 mg/mL), 64%; in assay [1] (Drug Conc 3.3 mg/mL) it was 77%; in assay [1] (Drug Conc 10 mg/mL), 77%. The “RSV NS1 gene transcript (/β-actin), Median” value is listed as 2.0 /β-actin in assay [1] (Drug Conc 0.33 mg/mL), 1.6 /β-actin in assay [1] (Drug Conc 1.0 mg/mL), 1.0 /β-actin in assay [1] (Drug Conc 3.3 mg/mL) and 1.0 /β-actin in assay [1] (Drug Conc 10 mg/mL). In the assay with RANTES gene expression, the “Effect on RANTES transcripts in lung (in words)” value is “dose-dependent inhibition”.
